Results taken from patent US20260365653A1, “IRREVERSIBLE MUTEGFR INHIBITORS” (Bayer Aktiengesellschaft, priority 2022, published 2026).

Assays:
[1] = target: T1, mutEGFR (D770_N771insNPG, T790) (Homo sapiens, UniProt P00533, INS770NPG/T790M); experiment: mutEGFR (D770_N771insNPG, T790) kinase assay; format: biochemical
T1 construct: exact insNPG construct not described; in-house EGFR proteins were N-terminal GST fusions from baculovirus/insect cells (borders R669-A1210 given only for WT, insSVD, insASV)
T1 sequence (P00533 with tags, fused parts or gaps INS770NPG/T790M limits assumed): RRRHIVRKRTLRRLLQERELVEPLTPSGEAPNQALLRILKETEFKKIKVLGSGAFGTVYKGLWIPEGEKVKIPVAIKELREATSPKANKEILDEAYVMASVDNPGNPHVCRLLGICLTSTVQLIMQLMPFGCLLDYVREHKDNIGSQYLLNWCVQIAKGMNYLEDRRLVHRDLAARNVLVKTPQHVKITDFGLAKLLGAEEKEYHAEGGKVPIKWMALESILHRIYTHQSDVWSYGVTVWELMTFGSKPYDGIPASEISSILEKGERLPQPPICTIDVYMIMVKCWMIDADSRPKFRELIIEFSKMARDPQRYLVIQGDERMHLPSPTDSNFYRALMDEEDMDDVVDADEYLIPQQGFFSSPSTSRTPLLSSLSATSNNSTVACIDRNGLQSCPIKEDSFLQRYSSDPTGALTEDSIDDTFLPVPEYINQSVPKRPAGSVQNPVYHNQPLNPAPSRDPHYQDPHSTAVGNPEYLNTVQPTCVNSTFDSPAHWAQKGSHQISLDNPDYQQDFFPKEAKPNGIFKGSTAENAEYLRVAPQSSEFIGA
Excerpt: The different EGFR proteins used in the biochemical kinase activity inhibition assays were generated inhouse by expression in insect cells using Baculo Virus system and subsequent purification as described in the following paragraphs.
The cDNAs encoding the various protein sequences from human EGFR human (P00533) were optimized for expression in eukaryotic cells and synthesized by the GeneArt Technology at Life Technologies.

[2] = target: T2, mutEGFR (D770_N771insSVD) (Homo sapiens, UniProt P00533, DUP768-770); experiment: Exon20-Mutant-EGFR (D770_N771insSVD) kinase assay (TR-FRET); format: biochemical
T2 construct: GST-EGFR #3 (SVD between D770 and N771); made in house; host or cells: Sf9 insect cells (baculovirus)
T2 sequence (P00533 with tags, fused parts or gaps DUP768-770): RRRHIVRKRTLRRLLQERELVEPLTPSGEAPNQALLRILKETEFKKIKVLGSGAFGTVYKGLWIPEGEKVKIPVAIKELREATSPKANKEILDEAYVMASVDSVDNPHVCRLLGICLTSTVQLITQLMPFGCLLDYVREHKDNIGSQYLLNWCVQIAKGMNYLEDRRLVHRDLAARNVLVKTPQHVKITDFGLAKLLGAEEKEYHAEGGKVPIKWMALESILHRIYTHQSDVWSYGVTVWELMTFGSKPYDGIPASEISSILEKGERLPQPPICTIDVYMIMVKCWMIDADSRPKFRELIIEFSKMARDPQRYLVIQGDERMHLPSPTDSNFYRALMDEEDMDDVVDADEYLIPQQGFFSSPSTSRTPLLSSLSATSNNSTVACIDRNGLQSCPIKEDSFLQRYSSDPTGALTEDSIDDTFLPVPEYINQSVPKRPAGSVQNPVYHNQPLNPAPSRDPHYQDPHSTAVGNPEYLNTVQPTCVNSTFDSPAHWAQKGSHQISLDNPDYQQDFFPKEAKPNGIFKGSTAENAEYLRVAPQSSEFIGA

[3] = test system: BA/F3 (EGFR D770_N771 insSVD T790M) cells; experiment: Ba/F3-EGFR-insSVD T790M cell survival assay (Cell Titer-Glo); format: cell-based; settings: Ba/F3 EGFR-D770-N771ins_SVD, 48 h
Experimental: Cellular Data Description (WT, insSVD, insSVD T790M) 293T cells from ATCC were transfected with pBABEpuro expression constructs for WT EGFR or EGFR-insSVD, or EGFR-insSVD T790M, and pCL-Eco packaging vector using Fugene-6 transfection reagent from Promega. Plates were incubated at 37° C. for 48 h. Retrovirus was harvested by filtering the media supernatant through a 0.45 μm filter.
Ba/F3 cells purchased from DSMZ were grown in RPMI+10% FBS+10 ng/ml IL-3 and infected with filtered retroviral supernatant at a 1:2 dilution. Polybrene was added to a concentration of 8 μg/mL, plates were spun for 90 min, and incubated for 16 h at 37° C. 2 μg/mL puromycin was added to the infected cells 24 h after infection and cells were continually grown in the presence of puromycin and 10 ng/ml IL-3. Following stably expressing Ba/F3 cell lines were generated: Ba/F3-EGFR-WT, Ba/F3-EGFR-insSVD, Ba/F3-EGFR-insSVD T790M, (Ba/F3-vector-control).
For cell survival assays, Ba/F3 cells were grown to a density of 1-2 million cells per mL, spun down and resuspended in media without IL-3, and replated at a concentration of 200,000-500,000 cells per mL. The cells ectopically expressing WT EGFR, EGFR-insSVD, or EGFR-insSVD T790M were plated with 10 ng/ml Millipore Culture grade EGF. The cells ectopically expressing pBABEpuro empty vector were plated with 10 ng/mL IL-3.
2 days later, cells were plated in 50 µL in a 384 well plate at a concentration of 4000 cells per well for cells assayed in the absence of IL-3 and 2000 cells per well for cells assayed in the presence of IL-3. 100 nL of compound was added to each well using a 100 nL pin head, and plates were incubated at 37° C. for 48 h.
Cell viability was measured by adding 20 μL of Cell Titer-Glo Luminescent Cell Viability Reagent diluted 1:3 in PBS. Plates were sealed with Perkin Elmer Top-Seal, inverted several times to mix, and immediately centrifuged at 1000 rpm for 2 min. Plates were incubated in low light conditions for 8-10 min and luminescence was measured.

[4] = test system: BA/F3 (insSVD) cells; experiment: Ba/F3-EGFR-insSVD cell survival assay (Cell Titer-Glo); format: cell-based; settings: Mus musculus, BaF3, 48 h
How it was run: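 Ba/F3 cells stably expressing retroviral EGFR-insSVD or insSVD T790M, grown without IL-3 on 10 ng/ml EGF, 4000 cells/well. Compound pinned in, 48 h at 37° C. Viability by CellTiter-Glo luminescence.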

[5] = test system: EGFR exon20 insertions; settings: patients with EGFR exon20 insertions; cited from earlier work
[6] = test system: wild-type EGFR; settings: cited from earlier work
[7] = test system: mutations in exons 18, 19, and 21 of EGFR; settings: cited from earlier work
[8] = background statement on approved drugs; cited from earlier work
[9] = test system: classical activating EGFR mutations and brain metastasis; settings: EGFR mutant NSCLC; cited from earlier work
[10] = test system: EGFR exon20 insertion mutations; settings: cited from earlier work
[11] = test system: EGFR T790M; settings: T790M mutant patients; cited from earlier work
[12] = Table 2b (from US Priority Patent Application), mutEGFR D770_N771insNPG
[13] = mutEGFR (D770_N771insSVD) kinase assay IC50, Table 2a, D770_N771insSVD, 2 mM ATP
[14] = mutEGFR (D770_N771insSVD) kinase assay IC50, Table 2b (from US Priority Patent Application), mutEGFR D770_N771insSVD
[15] = Table 3a, cell survival, Cell Titer-Glo, with 10 ng/ml EGF, without IL-3
[16] = Table 3b, Ba/F3 EGFR-insSVD T790M

| Compound | IC50 ([1]; Table 2a, D770_N771insNPG) [nM] | IC50 [2, 13] [nM] | IC50 [3, 15] [nM] | IC50 [4, 15] [nM] | other results |
| --- | --- | --- | --- | --- | --- |
| CC(C)N(C)C/C=C/C(=O)N1CCn2nc(-c3ccc(F)cc3)c(-c3ccnc(NC(=O)C4CC4)c3)c2C1 [Example 6, N-{4-[2-(4-fluorophenyl)-5-{(2E)-4-[methyl(propan-2-yl)amino]but-2-enoyl}-4,5,6,7-tetrahydropyrazolo[1,5-a]pyrazin-3-yl]pyridin-2-yl}cyclopropanecarboxamide] | 0.407 | 0.326 | 207 | 22.3 | IC50 [1, 12]: 0.407 nM; IC50 [2, 14]: 0.326 nM; IC50 [3, 16]: 207 nM; IC50 ([4]; Table 3b, Ba/F3 EGFR-insSVD): 22.3 nM |
| C=CC(=O)N1CCn2nc(-c3ccc(F)cc3)c(-c3ccnc(NC(=O)C4CC4)c3)c2C1 [Example 7, N-{4-[2-(4-fluorophenyl)-5-(prop-2-enoyl)-4,5,6,7-tetrahydropyrazolo[1,5-a]pyrazin-3-yl]pyridin-2-yl}cyclopropanecarboxamide] | 0.408 | 0.209 | 60.1 | 12.4 | IC50 [1, 12]: 0.408 nM; IC50 [2, 14]: 0.209 nM; IC50 [3, 16]: 60.1 nM; IC50 ([4]; Table 3b, Ba/F3 EGFR-insSVD): 12.4 nM |
| C=CC(=O)N1CCn2nc(-c3ccc(F)cc3)c(-c3ccnc(N)c3)c2C1 [Example 10, 1-[3-(2-aminopyridin-4-yl)-2-(4-fluorophenyl)-6,7-dihydropyrazolo[1,5-a]pyrazin-5(4H)-yl]prop-2-en-1-one] | 2.26 | 0.849 | 346 | 46.5 | IC50 [1, 12]: 2.26 nM; IC50 [2, 14]: 0.849 nM; IC50 [3, 16]: 346 nM; IC50 ([4]; Table 3b, Ba/F3 EGFR-insSVD): 46.5 nM |
| C=CS(=O)(=O)N1CCn2nc(-c3ccc(F)cc3)c(-c3ccncc3)c2C1 [Example 14, 5-(ethenesulfonyl)-2-(4-fluorophenyl)-3-(pyridin-4-yl)-4,5,6,7-tetrahydropyrazolo[1,5-a]pyrazine] | 0.867 | 0.406 | 983 | 760 | IC50 [1, 12]: 0.867 nM; IC50 [2, 14]: 0.406 nM; IC50 [3, 16]: 983 nM; IC50 ([4]; Table 3b, Ba/F3 EGFR-insSVD): 760 nM |
| CC(C)N(C)C/C=C/C(=O)N1CCn2nc(-c3ccc(F)cc3)c(-c3ccncc3)c2C1 [Example 18, (2E)-1-[2-(4-fluorophenyl)-3-(pyridin-4-yl)-6,7-dihydropyrazolo[1,5-a]pyrazin-5(4H)-yl]-4-[methyl(propan-2-yl)amino]but-2-en-1-one] | 1.76 | 0.451 | 9980 | 143 | IC50 [1, 12]: 1.76 nM; IC50 [2, 14]: 0.451 nM; IC50 [3, 16]: 0.217 nM; IC50 ([4]; Table 3b, Ba/F3 EGFR-insSVD): 143 nM |
| C=CC(=O)N1CCn2nc(-c3ccc(Cl)c(F)c3)c(-c3ccncc3)c2C1 [Example 36, 1-[2-(4-chloro-3-fluorophenyl)-3-(pyridin-4-yl)-6,7-dihydropyrazolo[1,5-a]pyrazin-5(4H)-yl]prop-2-en-1-one] | 1.13 | 0.321 | 126 | 17.9 | – |
| C=CC(=O)N1CCn2nc(-c3ccc(Cl)cc3F)c(-c3ccncc3)c2C1 [Example 37, 1-[2-(4-chloro-2-fluorophenyl)-3-(pyridin-4-yl)-6,7-dihydropyrazolo[1,5-a]pyrazin-5(4H)-yl]prop-2-en-1-one] | 0.658 | 0.258 | 104 | 7.14 | – |
| C=CC(=O)N1CCn2nc(-c3ccc(Cl)c(Cl)c3)c(-c3ccncc3)c2C1 [Example 40, 1-[2-(3,4-dichlorophenyl)-3-(pyridin-4-yl)-6,7-dihydropyrazolo[1,5-a]pyrazin-5(4H)-yl]prop-2-en-1-one] | 0.148 | 0.0982 | 56 | 14.9 | – |
| CN(C)CC#CC(=O)N1CCn2nc(-c3ccc(F)cc3)c(-c3ccncc3)c2C1 [Example 65, 4-(dimethylamino)-1-[2-(4-fluorophenyl)-3-(pyridin-4-yl)-6,7-dihydropyrazolo[1,5-a]pyrazin-5(4H)-yl]but-2-yn-1-one] | 0.952 | 0.382 | 1010 | 15.3 | – |
| C=CC(=O)N1CCn2nc(-c3ccc4sccc4c3)c(-c3ccncc3)c2C1 [Example 192, 1-[2-(1-benzothiophen-5-yl)-3-(pyridin-4-yl)-6,7-dihydropyrazolo[1,5-a]pyrazin-5(4H)-yl]prop-2-en-1-one] | 0.0916 | < 0.0725 | 39.7 | 148 | – |
| C=CC(=O)N1CCn2nc(-c3ccc4cc[nH]c4c3)c(-c3ccncc3)c2C1 [Example 195, 1-[2-(1H-indol-6-yl)-3-(pyridin-4-yl)-6,7-dihydropyrazolo[1,5-a]pyrazin-5(4H)-yl]prop-2-en-1-one] | 0.219 | 0.0825 | 43.3 | 8.9 | – |
| CN(C)C/C=C/C(=O)Nc1cc2c(Nc3ccc(F)c(Cl)c3)ncnc2cc1O[C@H]1CCOC1 [afatinib] | – | – | – | – | overall survival [5]: significantly reduced; progression-free survival [5]: significantly reduced; response rates [5]: particular low response rates; inhibition of wild-type EGFR [6]: potent inhibitors of wild-type EGFR; durability of response [7]: often not durable; efficacy in patients [7]: effective in patients |
| C#Cc1cccc(Nc2ncnc3cc(OCCOC)c(OCCOC)cc23)c1 [erlotinib] | – | – | – | – | overall survival [5]: significantly reduced; progression-free survival [5]: significantly reduced; response rates [5]: particular low response rates; durability of response [7]: often not durable; efficacy in patients [7]: effective in patients |
| COc1cc2ncnc(Nc3ccc(F)c(Cl)c3)c2cc1OCCCN1CCOCC1 [gefitinib] | – | – | – | – | overall survival [5]: significantly reduced; progression-free survival [5]: significantly reduced; response rates [5]: particular low response rates; durability of response [7]: often not durable; efficacy in patients [7]: effective in patients |
| C=CC(=O)Nc1cc(Nc2ncc(C(=O)OC(C)C)c(-c3cn(C)c4ccccc34)n2)c(OC)cc1N(C)CCN(C)C [mobocertinib, reference compound] | – | – | – | – | blood-brain-barrier permeability [8]: only limited blood-brain-barrier permeability |
| C=CC(=O)Nc1cc(Nc2nccc(-c3cn(C)c4ccccc34)n2)c(OC)cc1N(C)CCN(C)C [osimertinib] | – | – | – | – | CNS activity [9]: clearly improved CNS activity; activity on EGFR exon20 insertion mutations [10]: only limited activity; efficacy in patients [11]: effective in T790M mutant patients |
| amivantamab | – | – | – | – | blood-brain-barrier permeability [8]: only limited blood-brain-barrier permeability |
